How the values were obtained:
[1] = system: bladder afferent nerves; experiment: Intravesical trospium and carbachol experiments; format: in vivo; conditions: for direct effect on interstitial cystitis: trospium at low dose
Description: The action of trospium is unique because it has selective activity on the bladder urothelium and bladder afferent nerves. The local trospium bladder effect is on the afferent nerve rather than bladder smooth muscle. The effect of intravesical administered trospium was not blocked by pre treatment of capsaicin or resiniferatoxin. This indicates the afferent nerve effect is that of A-delta and not C-fibers.

[2] = system: interstitial cystitis patients; conditions: bladder instillation; cited from earlier work
[3] = system: animals; conditions: animal studies; cited from earlier work
[4] = cited from earlier work
[5] = system: human subject; experiment: Intravesical instillation of trospium chloride in human female subjects; format: in vivo; conditions: 0.5 mcg/ml twice daily intravesical
Protocol: A human subject, and weighing approximately 70 kg, presents with a sense of urgency and frequency to urinate, although they are not incontinent. The subject experiences pain and other pelvic discomfort, however, while attempting to urinate. Trospium chloride at a concentration of 0.5 mcg/ml is administered twice daily by intravesical instillation to the subject for a total dose of 2.0 mg trospium chloride per day. The dosing regimen is continued for six (6) weeks.
A human subject, and weighing approximately 60 kg, presents with incontinence. Trospium chloride at a concentration of 0.5 mcg/ml is administered twice daily by intravesical instillation to the subject for a total dose of 1.6 mg trospium chloride per day. The dosing regimen is continued for eight (8) months.

[6] = system: female SD rats; experiment: Cystometrogram (CMG) in anesthetized rats after intravesical instillation; format: in vivo, rat; conditions: 0.5 mcg/ml, approx. 5 ml intravesical, 10-30 minutes, urethane anesthesia
Protocol: Baseline cystometrogram (CMG) is measured in a group of 6 female SD rats (250 grams). The rats are anesthetized utilizing urethane anesthesia at a rate of 1.2 g/kg. Trospium chloride at a concentration of 0.5 mcg/ml is administered by intravesical instillation. Approximately, 5 ml are instilled. The trospium solution is maintained in the rat bladder for a period of 10-30 minutes. At the end of that period the solution is expelled and the CMG measured.

[7] = system: patients; experiment: Intravesicular instillation of trospium chloride in patients; format: in vivo, human
Description: Trospium chloride is a quaternary ammonium compound that concentrates in the urine primarily unchanged and is believed to have local antispasmodic activity. […] Therefore the use of trospium, especially by intravesicular instillation, is a novel treatment for interstitial cystitis with the very low potential for systemic side effects.

[8] = system: interstitial cystitis patients; conditions: cited from earlier work

Q: Which “direct effect on interstitial cystitis” value ([1]; intravesical) does the source give for C[N+](C)(C)CCOC(N)=O [carbachol] here?
A: Its value is “decreased”.

Q: For C[S+](C)[O-] [DMSO, dimethyl sulfoxide], which “average duration of significant pain relief” value [2] is on record?
A: The value was “about 10 months”.

Q: And the “duration of garlic-like taste and odor on the breath and skin after treatment” value [2]?
A: Its value is “up to 72 hours”.

Q: What about the “patients experiencing significant pain relief” value [2] of the same molecule?
A: The value was “About 50%”.

Q: And the “side effect of long-term treatment” value [3]?
A: Its value is “cataracts”.

Q: For O=C(O[C@H]1C[C@H]2CC[C@@H](C1)[N+]21CCCC1)C(O)(c1ccccc1)c1ccccc1 [trospium chloride], which “effect of intravesical trospium after pre treatment of capsaicin or resiniferatoxin” value ([1]; intravesical) is on record?
A: The value was “not blocked”.

Q: What about the “direct effect on interstitial cystitis” value ([1]; intravesical) of the same molecule?
A: Its value is “no direct effect”.

Q: What about the “effect on the inhibitory effect of carbachol” value ([1]; low dose of trospium) of the same molecule?
A: The value was “completely blocked”.

Q: What about the metabolism ([4]; in vivo) of the same molecule?
A: Its metabolism is “minimally metabolized”.

Q: And the protein binding ([4]; in vivo)?
A: Its protein binding is “not highly protein-bound”.

Q: And the plasma half-life ([4]; oral 20 mg tablets)?
A: Its plasma half-life is “about 20 hrs”.

Q: What about the “excreted through the feces” value ([4]; oral) of the same molecule?
A: Its value is 85.2%.

Q: What about the “excreted through urine (tubular secretion)” value ([4]; oral) of the same molecule?
A: Its value is 5.8%.

Q: What about the recognized side effects ([4]; oral) of the same molecule?
A: Its recognized side effects is “dry mouth, constipation, headache urinary retention and dry eyes”.

Q: What about the “urge, frequency and incontinence episodes” value ([5]; 1.6 mg per day, eight months, incontinence) of the same molecule?
A: The value was “significant reduction”.

Q: And the “pain when attempting to urinate” value ([5]; 2.0 mg per day, six weeks, urgency, frequency, pain)?
A: Its value is “no longer experiences pain”.

Q: And the “acetic-acid induced bladder overactivity” value [6]?
A: The value was “significantly suppressed”.

Q: And the “bladder contractions during voiding” value [6]?
A: The value was “without affecting”.

Q: And the “absorption into the systemic circulation” value [7]?
A: The value was “little or no absorption”.

Q: With pentosan polysulfate sodium as the molecule, how does the side effects ([8]; oral Elmiron) read?
A: Its side effects is “primarily gastrointestinal discomfort, although some patients experienced hair loss”.

Q: And the “patients treated whose symptoms improved” value ([8]; oral, clinical trials, interstitial cystitis)?
A: Its value is 38%.

Source: patent publication US20060217405A1, “Interstitial cystitis treatment” (Indevus Pharmaceuticals, Inc., priority 2005, published 2006)
